Where no end group is shown, it is not given here. [ ]: non-standard residue; d: D form. Lys(Me2) = CN(C)CCCC[C@H](N)C(=O)O
What was measured:
Test in all cases: Histone peptide microarray
Type in all cases: binding, human
ING3 = settings: GST-tagged ING3
How it was run: (§1)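 Binding read as mean relative signal from 4 replicates; microarray held 293 synthetic histone peptides with single or combinatorial PTMs. Each GST-tagged PHD reader was applied at 0.5 μM using the optimized Petell protocol.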

CHD5 (PPCC) = system: CHD5 (PPCC)
How it was run: as §1

PHF13 = settings: GST-tagged PHF13
How it was run: as §1

DPF2 (PPC2W2) = system: DPF2 (PPC2W2)
How it was run: as §1

CHD4 (PPCC) = system: CHD4 (PPCC)
How it was run: as §1

KDM5A (3) = settings: GST-tagged KDM5A (3)
How it was run: as §1

SP140L = settings: GST-tagged SP140L
How it was run: as §1

DIDO1 = settings: GST-tagged DIDO1
How it was run: as §1

KDM5B (3) = settings: GST-tagged KDM5B (3)
How it was run: as §1

RAG2 = settings: GST-tagged RAG2
How it was run: as §1

PHRF1 (RP) = settings: GST-tagged PHRF1 (RP)
How it was run: as §1

PHF23 = settings: GST-tagged PHF23
How it was run: as §1

ING2 = settings: GST-tagged ING2
How it was run: as §1

ING4 = settings: GST-tagged ING4
How it was run: as §1

KDM5B (1) = settings: GST-tagged KDM5B (1)
How it was run: as §1

KDM4C (TTP) = system: KDM4C (TTP)
How it was run: as §1

MORC3 (CW) = system: MORC3 (CW)
How it was run: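 Steps: express and purify GST-tagged PHD reader; incubate 0.5 μM protein on a peptide microarray (293 histone peptides, single or combined PTMs) following an optimized protocol; average signal across 4 replicates.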

KDM5A (1) = settings: GST-tagged KDM5A (1)
How it was run: as §1

PHF2 = settings: GST-tagged PHF2
How it was run: as §1

TAF3 = settings: GST-tagged TAF3
How it was run: as §1

CHD5 (PCC) = system: CHD5 (PCC)
How it was run: as §1

MLL5 = settings: GST-tagged MLL5
How it was run: as §1

KDM7A = settings: GST-tagged KDM7A
How it was run: as §1

BPTF (PB) = system: BPTF (PB)
How it was run: as §1

ING5 = settings: GST-tagged ING5
How it was run: as §1

BAZ2B = settings: GST-tagged BAZ2B
How it was run: as §1

AIRE (PP) = settings: GST-tagged AIRE (PP)
How it was run: as §1

ING1 = settings: GST-tagged ING1
How it was run: as §1

PHF8 = settings: GST-tagged PHF8
How it was run: as §1

PHF21A = settings: GST-tagged PHF21A
How it was run: as §1

TRIM66 (PB) = system: TRIM66 (PB)
How it was run: as §1

[1] = sheet "Array Heatmap", arrays performed twice, total replicate number n = 4
[2] = sheet Array Heatmap, each array performed twice, total n = 4

H3K4A + K9me2 (1-15): H3 1-15 (ARTAQTAR[Lys(Me2)]STGGKA; UniProt P68431 2-16, looked up, variant K4A)
Array Heatmap signal, ING3 (ING3; [1]): 0.5843
Array Heatmap signal, CHD5 (PPCC) (CHD5 (PPCC); sheet "Array Heatmap", GST-tagged CHD5 (PPCC), arrays performed twice, total replicate number n = 4): 0.6167
Array Heatmap signal, PHF13 (PHF13; [1]): 0.6939
Array Heatmap signal, DPF2 (PPC2W2) (DPF2 (PPC2W2); sheet "Array Heatmap", GST-tagged DPF2 (PPC2W2), arrays performed twice, total replicate number n = 4): 0.7164
Array Heatmap signal, CHD4 (PPCC) (CHD4 (PPCC); sheet "Array Heatmap", GST-tagged CHD4 (PPCC), arrays performed twice, total replicate number n = 4): 0.6182
Array Heatmap signal, KDM5A (3) (KDM5A (3); [1]): 0.6587
Array Heatmap signal, SP140L (SP140L; [1]): 0.3864
Array Heatmap signal, DIDO1 (DIDO1; [1]): 0.8787
Array Heatmap signal, KDM5B (3) (KDM5B (3); [1]): 0.59
Array Heatmap signal, RAG2 (RAG2; [1]): 0.4111
Array Heatmap signal, PHRF1 (RP) (PHRF1 (RP); [1]): 0.5557
Array Heatmap signal, PHF23 (PHF23; [1]): 0.6377
Array Heatmap signal, ING2 (ING2; [1]): 0.695
Array Heatmap signal, ING4 (ING4; [1]): 0.5574
Array Heatmap signal, KDM5B (1) (KDM5B (1); [1]): 0.7016
Array Heatmap signal, KDM4C (TTP) (KDM4C (TTP); sheet "Array Heatmap", GST-tagged KDM4C (TTP), arrays performed twice, total replicate number n = 4): 0.6461
Array Heatmap signal, MORC3 (CW) (MORC3 (CW); sheet "Array Heatmap", GST-tagged MORC3 (CW), arrays performed twice, total replicate number n = 4): 0.5677
Array Heatmap signal, KDM5A (1) (KDM5A (1); [1]): 0.5206
Array Heatmap signal, PHF2 (PHF2; [1]): 0.6167
Array Heatmap signal, TAF3 (TAF3; [1]): 0.4571
Array Heatmap signal, CHD5 (PCC) (CHD5 (PCC); sheet "Array Heatmap", GST-tagged CHD5 (PCC), arrays performed twice, total replicate number n = 4): 0.7736
Array Heatmap signal, MLL5 (MLL5; [1]): 0.7648
Array Heatmap signal, KDM7A (KDM7A; [1]): 0.6423
Array Heatmap signal, BPTF (PB) (BPTF (PB); sheet "Array Heatmap", GST-tagged BPTF (PB), arrays performed twice, total replicate number n = 4): 0.4333
Array Heatmap signal, ING5 (ING5; [1]): 0.4518
Array Heatmap signal, BAZ2B (BAZ2B; [1]): 0.512
Array Heatmap signal, AIRE (PP) (AIRE (PP); [1]): 0.5312
Array Heatmap signal, ING1 (ING1; [1]): 0.7124
Array Heatmap signal, PHF8 (PHF8; [1]): 0.5196
Array Heatmap signal, PHF21A (PHF21A; [1]): 0.468
Array Heatmap signal, TRIM66 (PB) (TRIM66 (PB); sheet "Array Heatmap", GST-tagged TRIM66 (PB), arrays performed twice, total replicate number n = 4): 0.6262

H3K4ac + K9ac + K14ac + K18ac: H3 1-20
Array Heatmap signal (histone peptide microarray) (ING3; [2]): 0.4699
Array Heatmap signal (histone peptide microarray) (CHD5 (PPCC); GST-tagged CHD5 (PPCC = Dual PHD + Dual Chromodomain), sheet Array Heatmap, each array performed twice, total n = 4): 0.5084
Array Heatmap signal (histone peptide microarray) (PHF13; [2]): 0.5706
Array Heatmap signal (histone peptide microarray) (DPF2 (PPC2W2); GST-tagged DPF2 (PPC2W2 = Dual PHD + C2W2-type Zn-finger), sheet Array Heatmap, each array performed twice, total n = 4): 0.6596
Array Heatmap signal (histone peptide microarray) (CHD4 (PPCC); GST-tagged CHD4 (PPCC = Dual PHD + Dual Chromodomain), sheet Array Heatmap, each array performed twice, total n = 4): 0.5829
Array Heatmap signal (histone peptide microarray) (KDM5A (3); [2]): 0.4281
Array Heatmap signal (histone peptide microarray) (SP140L; [2]): 0.3096
Array Heatmap signal (histone peptide microarray) (DIDO1; [2]): 0.7084
Array Heatmap signal (histone peptide microarray) (KDM5B (3); [2]): 0.4694
Array Heatmap signal (histone peptide microarray) (RAG2; [2]): 0.2412
Array Heatmap signal (histone peptide microarray) (PHRF1 (RP); [2]): 0.4629
Array Heatmap signal (histone peptide microarray) (PHF23; [2]): 0.5552
Array Heatmap signal (histone peptide microarray) (ING2; [2]): 0.6105
Array Heatmap signal (histone peptide microarray) (ING4; [2]): 0.4318
Array Heatmap signal (histone peptide microarray) (KDM5B (1); [2]): 0.573
Array Heatmap signal (histone peptide microarray) (KDM4C (TTP); GST-tagged KDM4C (TTP = Tandem Tudor domain + PHD), sheet Array Heatmap, each array performed twice, total n = 4): 0.4292
Array Heatmap signal (histone peptide microarray) (MORC3 (CW); GST-tagged MORC3 (CW = CW-type Zn-finger), sheet Array Heatmap, each array performed twice, total n = 4): 0.3581
Array Heatmap signal (histone peptide microarray) (KDM5A (1); [2]): 0.4231
Array Heatmap signal (histone peptide microarray) (PHF2; [2]): 0.6121
Array Heatmap signal (histone peptide microarray) (TAF3; [2]): 0.2581
Array Heatmap signal (histone peptide microarray) (CHD5 (PCC); GST-tagged CHD5 (PCC = PHD + Dual Chromodomain), sheet Array Heatmap, each array performed twice, total n = 4): 0.7123
Array Heatmap signal (histone peptide microarray) (MLL5; [2]): 0.5536
Array Heatmap signal (histone peptide microarray) (KDM7A; [2]): 0.3021
Array Heatmap signal (histone peptide microarray) (BPTF (PB); GST-tagged BPTF (PB = PHD + Bromodomain), sheet Array Heatmap, each array performed twice, total n = 4): 0.3593
Array Heatmap signal (histone peptide microarray) (ING5; [2]): 0.3295
Array Heatmap signal (histone peptide microarray) (BAZ2B; [2]): 0.563
Array Heatmap signal (histone peptide microarray) (AIRE (PP); [2]): 0.3782
Array Heatmap signal (histone peptide microarray) (ING1; [2]): 0.5598
Array Heatmap signal (histone peptide microarray) (PHF8; [2]): 0.3207
Array Heatmap signal (histone peptide microarray) (PHF21A; [2]): 0.4272
Array Heatmap signal (histone peptide microarray) (TRIM66 (PB); GST-tagged TRIM66 (PB = PHD + Bromodomain), sheet Array Heatmap, each array performed twice, total n = 4): 0.6561
